ChEMBL document CHEMBL1135868, “Small ligands interacting with the phosphotyrosine binding pocket of the Src SH2 protein” (Bioorg Med Chem Lett, 2002)

Target: Proto-oncogene tyrosine-protein kinase Src (Homo sapiens, UniProt P12931)
Assay: The compound was evaluated for its binding affinity towards phosphotyrosine binding pocket of Src protein tyrosine kinase SH2 domain

Sequence of Proto-oncogene tyrosine-protein kinase Src (P12931 2-536 limits assumed): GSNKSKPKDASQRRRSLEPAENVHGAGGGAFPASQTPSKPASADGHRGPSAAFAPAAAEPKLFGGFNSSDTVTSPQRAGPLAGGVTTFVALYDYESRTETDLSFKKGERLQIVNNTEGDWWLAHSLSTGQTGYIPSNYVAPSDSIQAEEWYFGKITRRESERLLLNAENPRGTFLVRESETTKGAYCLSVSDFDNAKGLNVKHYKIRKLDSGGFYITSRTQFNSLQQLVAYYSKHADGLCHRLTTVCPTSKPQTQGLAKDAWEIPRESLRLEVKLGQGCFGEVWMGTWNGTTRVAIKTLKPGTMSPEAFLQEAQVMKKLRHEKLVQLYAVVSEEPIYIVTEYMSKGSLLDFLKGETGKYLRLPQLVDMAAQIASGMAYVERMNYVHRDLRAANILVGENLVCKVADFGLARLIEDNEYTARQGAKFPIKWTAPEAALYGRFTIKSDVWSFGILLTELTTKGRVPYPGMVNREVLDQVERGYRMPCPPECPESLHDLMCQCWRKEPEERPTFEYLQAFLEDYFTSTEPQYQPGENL

IC50	Compound
4 mM	COc1ccc(OP(=O)(O)O)cc1
2 mM	Cc1ccc(OP(=O)(O)O)cc1
1.2 mM	O=P(O)(O)Oc1ccc(SC(F)(F)F)cc1
3.2 mM	COC(=O)c1cc2ccccc2cc1OP(=O)(O)O
> 5 mM	CCc1ccc(NC(=O)P(=O)(O)OCc2ccccc2)cc1
0.8 mM	O=C(Nc1ccc(OCc2ccccc2)cc1)P(=O)(O)O
1 mM	O=P(O)(O)Oc1cccc2ccccc12
3.9 mM	CCCCOc1ccc(NC(=O)P(=O)(O)O)cc1
4 mM	CC(C)(C)c1ccc(OP(=O)(O)O)cc1
2.1 mM	COc1cc(NC(=O)P(=O)(O)O)cc(OC)c1OC
3.6 mM	CCOC(=O)c1ccc(NC(=O)P(=O)(O)O)cc1
4 mM	O=C(Nc1ccccc1OC(F)(F)F)P(=O)(O)O
> 10 mM	Cc1cccc(C)c1OP(=O)(O)O
3.5 mM	O=P(O)(O)Oc1ccccc1Cl
0.5 mM	O=Cc1cccc(C=O)c1OP(=O)(O)O
4 mM	COC(=O)c1ccc(OP(=O)(O)O)cc1
> 10 mM	O=P(O)(O)Oc1cccc2cccnc12
3.5 mM	CC(=O)c1ccc2ccccc2c1OP(=O)(O)O
0.2 mM	O=Cc1ccccc1OP(=O)(O)O
2.4 mM	O=Cc1cccc(OP(=O)(O)O)c1
4 mM	Cc1cccc(OP(=O)(O)O)c1
2 mM	O=C(O)c1ccccc1OP(=O)(O)O [FOSFOSAL]
> 5 mM	O=C(NCCc1ccccc1)P(=O)(O)O [PHENETHYLCARBAMOYLPHOSPHONIC ACID]
1 mM	O=[N+]([O-])c1ccc(OP(=O)(O)O)cc1 [p-NITROPHENYLPHOSPHATE]

Compound	IC50
COP(=O)(O)Oc1ccccc1C=O	3.3 mM
COC(=O)c1cccc(OP(=O)(O)O)c1	4 mM
CC(C)c1ccc(C(O)P(=O)(O)O)cc1 (stereo not drawn)	> 10 mM
COc1ccccc1C(O)P(=O)(O)O (stereo not drawn)	> 10 mM
CCCOc1ccc(C(O)P(=O)(O)O)cc1 (stereo not drawn)	2.4 mM
O=P(O)(O)Oc1ccc2ccccc2c1	1 mM
O=P(O)(O)C(O)c1ccc2ccccc2c1 (stereo not drawn)	4.4 mM
O=P(O)(O)C(O)C1CCCCC1 (stereo not drawn)	> 10 mM
CC(C)OP(=O)(O)Oc1ccccc1C=O	2.1 mM
O=P(O)(O)C(O)c1ccc(-c2ccccc2)cc1 (stereo not drawn)	> 10 mM
Nc1ccc(OP(=O)(O)O)cc1	0.6 mM
O=C(NCc1ccccc1)P(=O)(O)O [(BENZYLAMINO)CARBONYLPHOSPHONIC ACID]	4.4 mM
O=P(O)(O)C(O)c1ccccc1 (stereo not drawn) [ALPHA HYDROXY BENZYLPHOSPHONATE]	> 10 mM
O=P(O)(O)Oc1ccccc1 [PHENYL DIHYDROGEN PHOSPHATE]	2.5 mM
